Experimental data from ChEMBL document CHEMBL1154476 (Eur J Med Chem, 2008).

What follows are compounds tested against T1, Ribosyldihydronicotinamide dehydrogenase [quinone] (Homo sapiens, UniProt P16083) (assay: Displacement of [125I]iodomelatonin from MT3/QR2 melatonin binding site expressed in CHO cells).
T1 sequence (P16083 whole entry): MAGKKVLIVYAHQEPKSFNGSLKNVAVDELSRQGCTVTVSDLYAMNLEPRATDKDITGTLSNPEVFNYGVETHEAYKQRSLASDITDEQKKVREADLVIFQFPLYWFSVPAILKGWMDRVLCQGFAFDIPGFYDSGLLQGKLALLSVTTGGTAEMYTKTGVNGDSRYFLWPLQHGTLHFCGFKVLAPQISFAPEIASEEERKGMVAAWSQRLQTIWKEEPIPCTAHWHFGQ
Type: cell-based
An IC50 of 70.8 nM was found for COc1ccc2c(CCNC(=O)C3CCC3)cccc2c1 in this work.
An IC50 of 1.2 nM was found for COc1ccc2[nH]cc(CCNC(C)=O)c2c1[N+](=O)[O-] in this work.
An IC50 of 64.6 nM was found for COc1ccc2occ(CCNC(C)=O)c2c1 in this work.
An IC50 of 2.82 nM was found for COc1ccc2c(c1)c(CCNC(C)=O)cn2C in this work.
An IC50 of 28.8 nM was found for COc1ccc2cccc(CCNC(=O)c3ccccc3)c2c1 in this work.
An IC50 of 43.7 nM was found for COc1ccc2cccc(CCNC(=O)C(C)C)c2c1 in this work.
An IC50 of 41.7 nM was found for CC(=O)NCCc1c[nH]c2ccc([N+](=O)[O-])cc12 in this work.
An IC50 of 28.2 nM was found for CS(=O)(=O)NCCc1cccc2ccccc12 in this work.
An IC50 of 15.8 nM was found for COC(=O)Nc1ccc2occ(CCNC(C)=O)c2c1 in this work.
An IC50 of 67.6 nM was found for COC(=O)Nc1ccc2occ(CCNC(=O)c3ccccc3)c2c1 in this work.
An IC50 of 12 nM was found for CNC(=O)c1ccc2cccc(CNC(C)=O)c2c1 in this work.
An IC50 of 37.2 nM was found for CC(=O)NCCc1cccc2ccc([S+](C)[O-])cc12 (centres undefined) in this work.
An IC50 of 24 nM was found for COC(=O)Nc1ccc2cccc(CNC(=O)C3CC3)c2c1 in this work.
An IC50 of 18.2 nM was found for CSc1ccc2cccc(CCNC(C)=O)c2c1 in this work.
An IC50 of 3.02 nM was found for CCOC(=O)c1[nH]c2ccc(OC)cc2c1CCNC(C)=O in this work.
An IC50 of 61.7 nM was found for COc1ccc2cccc(CC3=NC(=O)NC3=O)c2c1 in this work.
An IC50 of 14.1 nM was found for COc1ccc2cccc(CCN3CCOC3=O)c2c1 in this work.
An IC50 of 53.7 nM was found for COc1ccc2cccc(CCNC(=O)c3ccco3)c2c1 in this work.
An IC50 of 11 nM was found for O=C(NCCc1cccc2ccc(O)cc12)c1ccco1 in this work.
An IC50 of 32.4 nM was found for CC(=O)NCCc1cccc2ccc(S(N)(=O)=O)cc12 in this work.
An IC50 of 51.3 nM was found for CC(C)(C)OC(=O)NCCc1cccc2ccc(O)cc12 in this work.
An IC50 of 9.12 nM was found for CNS(=O)(=O)c1ccc2cccc(CCNC(=O)c3ccco3)c2c1 in this work.
An IC50 of 20.9 nM was found for CC(=O)NCCc1cccc2ccc(S(C)(=O)=O)cc12 in this work.
An IC50 of 7.76 nM was found for C=CCC(=O)NCCc1cccc2ccc(O)cc12 in this work.
An IC50 of 52.5 nM was found for COC(=O)c1ccc2cccc(CNC(=O)c3ccco3)c2c1 in this work.
An IC50 of 11 nM was found for C=CCC(=O)NCCc1coc2ccc(NC(=O)OC)cc12 in this work.
An IC50 of 18.2 nM was found for COC(=O)c1ccc2occ(CCNC(=O)C3CCCC3)c2c1 in this work.
An IC50 of 14.1 nM was found for COC(=O)c1ccc2occ(CCNC(C)=O)c2c1 in this work.
An IC50 of 67.6 nM was found for NC(=O)c1ccc2occ(CCNC(=O)c3ccco3)c2c1 in this work.
An IC50 of 61.7 nM was found for COc1ccc2cccc(CCNC(=O)CN3CCCC3=O)c2c1 in this work.
An IC50 of 0.302 nM was found for COC(=O)Nc1ccc2[nH]c(I)c(CCNC(C)=O)c2c1 in this work.
An IC50 of 22.9 nM was found for COC(=O)Nc1ccc2occ(CCNC(=O)C(C)C)c2c1 in this work.
An IC50 of 56.2 nM was found for COC(=O)Nc1ccc2occ(CCNC(=O)c3ccco3)c2c1 in this work.
An IC50 of 0.309 nM was found for COc1ccc2c(c(CCNC(C)=O)cn2C)c1[N+](=O)[O-] in this work.
